# Data taken from publication PMC9603373 (Microbiology Spectrum, 2022).
# Marks after values point to notes of the source that are not given here.
# Assays:
# [1] = tested on: vancomycin-resistant Enterococcus faecium isolate NTUH688 (DNSE); assay type: cell-based; conditions: broth microdilution, cation-adjusted Mueller-Hinton broth + 50 μg/mL calcium
# Experimental: (§1) Blood culture isolates were obtained from a clinical microbiology laboratory. Enterococcus spp. were identified using the Vitek 2 identification system (bioMérieux Inc., La Balme les Grottes, France). The MIC of vancomycin was determined using a Sensititre GPN3F (Trek Diagnostics, West Sussex, England). […] We used cation-adjusted Mueller-Hinton broth (Becton, Dickinson, Le Pont-de-Claix, France) supplemented with 50 μg/mL calcium. The MIC breakpoints were based on the CLSI criteria of interpretation ([15]).
# [2] = tested on: vancomycin-resistant Enterococcus faecium isolate NTUH664 (DSE); assay type: cell-based; conditions: broth microdilution, cation-adjusted Mueller-Hinton broth + 50 μg/mL calcium
# Experimental: as §1
# in vivo = conditions: male, Wistar, rat, plasma, SD
# Experimental: The experiments were performed in triplicate. […] Plasma was collected via centrifugation, and the samples were stored at −80°C until analysis.
# All of the UHPLC-ESI-MS/MS analyses were performed using an Agilent 1290 UHPLC system coupled with an Agilent 6460 triple quadrupole mass spectrometer (Agilent Technologies, Santa Clara, CA, USA).
# [3] = tested on: daptomycin-susceptible, dose-dependent Enterococcus faecium (NTUH664); experiment: Rat infective endocarditis model, DSE; conditions: for Bacterial load in blood / Rate of sterile vegetation / Bacterial load of vegetation: Wistar rat IE, DSE MIC 0.5 mg/L; for Bacterial load in blood / Bacterial load of vegetation: mean (SD); for Bacterial load in blood / Rate of sterile vegetation: n = 3; for Bacterial load of vegetation: sacrifice 24 h after last dose, n = 3, detection limit 2 log10 CFU/g; for veg_sterile: flag 1/0;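 on all read-outs here: male Wistar rats with catheter-induced aortic valve endocarditis, dosed for 3 days, CFU counted in vegetation and blood, saline-treated infected controls, vegetation detection limit 2 log10 CFU/g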
# Experimental: Approval for animal use was obtained from the National Taiwan University Institutional Animal Care and Use Committee before the commencement of the experiments. Endocarditis was induced in male Wistar rats weighing ~330 g by using previously developed methodologies with slight modifications ([46]). To expose the right carotid artery for the placement of an intravascular catheter, the animals were anesthetized with 1 μL/g of Zoletil 50 (1 mg/mL) plus Rompun (23.32 mg/mL). A sterile polyethylene catheter (Intramedic PE-10; Clay Adams, Parsippany, NJ, USA) was inserted through a small incision and advanced 4 cm into the left ventricle. The catheter was ligated and left in place for the duration of the experiment. 24 h after the catheter was placed across the aortic valve, the bacterial inoculum, which was presuspended in saline, and 1 mL of 10^8 CFU/mL of VRE were administered intravenously via the tail vein. We evaluated the actual inoculum based on the CFU count. The rats received antibiotic treatment at 24 h or 48 h after the bacterial inoculation.
# The animals were treated for 3 days. A group of infected but phosphate-buffered saline-treated rats was used as a control. 24 h after the last treatment, the animals were sacrificed via anesthetic overdose. The aortic valve vegetation and 1 mL of blood were obtained aseptically from the sacrificed animals, weighed, and homogenized in 1 mL of phosphate-buffered saline. Serial dilutions of homogenized tissues were performed, and 100 μL of each dilution, including the undiluted sample, were plated on brain heart infusion agar to enumerate the bacteria. The animals were included in the final analysis only if they survived the entire therapy and if their catheters were found across the aortic valve in the left ventricle. The detection limit of the bacterial load of vegetation was 2 log10 CFU/g.
# [4] = DSE MIC 0.5, delay 24 h, 12 mg/kg iv, rat 1 of 3 (row order)
# [5] = DSE MIC 0.5, delay 24 h, 12 mg/kg iv, rat 2 of 3 (row order)
# [6] = DSE MIC 0.5, delay 24 h, 12 mg/kg iv, rat 3 of 3 (row order)
# [7] = DSE MIC 0.5, delay 24 h, 45 mg/kg sc, rat 1 of 3 (row order)
# [8] = DSE MIC 0.5, delay 24 h, 45 mg/kg sc, rat 2 of 3 (row order)
# [9] = DSE MIC 0.5, delay 24 h, 45 mg/kg sc, rat 3 of 3 (row order)
# [10] = DSE MIC 0.5, delay 24 h, 90 mg/kg sc, rat 1 of 3 (row order)
# [11] = DSE MIC 0.5, delay 24 h, 90 mg/kg sc, rat 2 of 3 (row order)
# [12] = DSE MIC 0.5, delay 24 h, 90 mg/kg sc, rat 3 of 3 (row order)
# [13] = DSE MIC 0.5, delay 48 h, 12 mg/kg iv, rat 1 of 3 (row order)
# [14] = DSE MIC 0.5, delay 48 h, 12 mg/kg iv, rat 2 of 3 (row order)
# [15] = DSE MIC 0.5, delay 48 h, 12 mg/kg iv, rat 3 of 3 (row order)
# [16] = DSE MIC 0.5, delay 48 h, 45 mg/kg sc, rat 1 of 3 (row order)
# [17] = DSE MIC 0.5, delay 48 h, 45 mg/kg sc, rat 2 of 3 (row order)
# [18] = DSE MIC 0.5, delay 48 h, 45 mg/kg sc, rat 3 of 3 (row order)
# [19] = DSE MIC 0.5, delay 48 h, 90 mg/kg sc, rat 1 of 3 (row order)
# [20] = DSE MIC 0.5, delay 48 h, 90 mg/kg sc, rat 2 of 3 (row order)
# [21] = DSE MIC 0.5, delay 48 h, 90 mg/kg sc, rat 3 of 3 (row order)
# [22] = 48 h from inoculation to treatment, 12 mg/kg/day i.v. 3 days, SD
# [23] = 48 h from inoculation to treatment, 45 mg/kg/day s.c. 3 days, SD
structure (smiles),measurement,setting,value
"CCCCCCCCCC(=O)N[C@@H](Cc1c[nH]c2ccccc12)C(=O)N[C@H](CC(N)=O)C(=O)N[C@@H](CC(=O)O)C(=O)N[C@@H]1C(=O)NCC(=O)N[C@@H](CCCN)C(=O)N[C@@H](CC(=O)O)C(=O)N[C@H](C)C(=O)N[C@@H](CC(=O)O)C(=O)NCC(=O)N[C@H](CO)C(=O)N[C@@H]([C@H](C)CC(=O)O)C(=O)N[C@@H](CC(=O)c2ccccc2N)C(=O)O[C@@H]1C [daptomycin, Daptomycin]",daptomycin MIC,[1],8 µg/mL
same,daptomycin MIC,[2],0.5 µg/mL
same,Tmax,"in vivo; iv, 12 mg/kg",0.3 h
same,cmax,"in vivo; iv, 12 mg/kg",106000 ng/mL
same,half-life,"in vivo; iv, 12 mg/kg",4.6 h
same,Tmax,"in vivo; sc, 45 mg/kg",3.3 h
same,cmax,"in vivo; sc, 45 mg/kg",123000 ng/mL
same,half-life,"in vivo; sc, 45 mg/kg",3 h
same,Tmax,"in vivo; sc, 90 mg/kg",3.3 h
same,cmax,"in vivo; sc, 90 mg/kg",178000 ng/mL
same,half-life,"in vivo; sc, 90 mg/kg",2.9 h
same,blood_cfu,[3]; [4],0
same,log_blood_cfu,[3]; [4],0
same,log_veg_cfu,[3]; [4],0
same,veg_cfu,[3]; [4],0
same,blood_cfu,[3]; [5],0
same,log_blood_cfu,[3]; [5],0
same,log_veg_cfu,[3]; [5],0
same,veg_cfu,[3]; [5],0
same,blood_cfu,[3]; [6],0
same,log_blood_cfu,[3]; [6],0
same,log_veg_cfu,[3]; [6],0
same,veg_cfu,[3]; [6],0
same,blood_cfu,[3]; [7],0
same,log_blood_cfu,[3]; [7],0
same,log_veg_cfu,[3]; [7],0
same,veg_cfu,[3]; [7],0
same,blood_cfu,[3]; [8],0
same,log_blood_cfu,[3]; [8],0
same,log_veg_cfu,[3]; [8],0
same,veg_cfu,[3]; [8],0
same,blood_cfu,[3]; [9],0
same,log_blood_cfu,[3]; [9],0
same,log_veg_cfu,[3]; [9],0
same,veg_cfu,[3]; [9],0
same,blood_cfu,[3]; [10],0
same,log_blood_cfu,[3]; [10],0
same,log_veg_cfu,[3]; [10],0
same,veg_cfu,[3]; [10],0
same,blood_cfu,[3]; [11],0
same,log_blood_cfu,[3]; [11],0
same,log_veg_cfu,[3]; [11],0
same,veg_cfu,[3]; [11],0
same,blood_cfu,[3]; [12],0
same,log_blood_cfu,[3]; [12],0
same,log_veg_cfu,[3]; [12],0
same,veg_cfu,[3]; [12],0
same,blood_cfu,[3]; [13],0
same,log_blood_cfu,[3]; [13],0
same,log_veg_cfu,[3]; [13],3.4
same,veg_cfu,[3]; [13],2500
same,blood_cfu,[3]; [14],0
same,log_blood_cfu,[3]; [14],0
same,log_veg_cfu,[3]; [14],3.26
same,veg_cfu,[3]; [14],1800
same,blood_cfu,[3]; [15],0
same,log_blood_cfu,[3]; [15],0
same,log_veg_cfu,[3]; [15],3.17
same,veg_cfu,[3]; [15],1480
same,blood_cfu,[3]; [16],0
same,log_blood_cfu,[3]; [16],0
same,log_veg_cfu,[3]; [16],4.66
same,veg_cfu,[3]; [16],45600
same,blood_cfu,[3]; [17],0
same,log_blood_cfu,[3]; [17],0
same,log_veg_cfu,[3]; [17],4.38
same,veg_cfu,[3]; [17],23900
same,blood_cfu,[3]; [18],0
same,log_blood_cfu,[3]; [18],0
same,log_veg_cfu,[3]; [18],0
same,veg_cfu,[3]; [18],0
same,blood_cfu,[3]; [19],0
same,log_blood_cfu,[3]; [19],0
same,log_veg_cfu,[3]; [19],0
same,veg_cfu,[3]; [19],0
same,blood_cfu,[3]; [20],0
same,log_blood_cfu,[3]; [20],0
same,log_veg_cfu,[3]; [20],0
same,veg_cfu,[3]; [20],0
same,blood_cfu,[3]; [21],0
same,log_blood_cfu,[3]; [21],0
same,log_veg_cfu,[3]; [21],0
same,veg_cfu,[3]; [21],0
same,Bacterial load in blood,"[3]; 24 h from inoculation to treatment, 12 mg/kg/day i.v. 3 days, SD",0 (0) log10 CFU/mL
same,Rate of sterile vegetation,"[3]; 24 h from inoculation to treatment, 12 mg/kg/day i.v. 3 days",100
same,Bacterial load in blood,"[3]; 24 h from inoculation to treatment, 45 mg/kg/day s.c. 3 days, SD",0 (0) log10 CFU/mL
same,Rate of sterile vegetation,"[3]; 24 h from inoculation to treatment, 45 mg/kg/day s.c. 3 days",100
same,Bacterial load in blood,"[3]; 24 h from inoculation to treatment, 90 mg/kg/day s.c. 3 days, SD",0 (0) log10 CFU/mL
same,Rate of sterile vegetation,"[3]; 24 h from inoculation to treatment, 90 mg/kg/day s.c. 3 days",100
same,Bacterial load in blood,[3]; [22],0 (0) log10 CFU/mL
same,Rate of sterile vegetation,"[3]; 48 h from inoculation to treatment, 12 mg/kg/day i.v. 3 days",0
same,Bacterial load of vegetation,[3]; [22],3.27 (0.11) log10 CFU/g
same,Bacterial load in blood,[3]; [23],0 (0) log10 CFU/mL
same,Rate of sterile vegetation,"[3]; 48 h from inoculation to treatment, 45 mg/kg/day s.c. 3 days",0
same,Bacterial load of vegetation,[3]; [23],4.75 (0.42)^g log10 CFU/g
same,Bacterial load in blood,"[3]; 48 h from inoculation to treatment, 90 mg/kg/day s.c. 3 days, SD",0 (0) log10 CFU/mL
same,Rate of sterile vegetation,"[3]; 48 h from inoculation to treatment, 90 mg/kg/day s.c. 3 days",100
same,Bacterial load of vegetation,"[3]; 48 h from inoculation to treatment, 90 mg/kg/day s.c. 3 days, 90 mg/kg/day",0 log10 CFU/g
same,Bacterial load of vegetation,"[3]; 48 h from inoculation to treatment, 90 mg/kg/day s.c. 3 days, 90 mg/kg/day, SD","0 (0)^h^,^i log10 CFU/g"
same,veg_sterile,[3]; [5],1
same,veg_sterile,[3]; [6],1
same,veg_sterile,[3]; [7],1
same,veg_sterile,[3]; [8],1
same,veg_sterile,[3]; [9],1
same,veg_sterile,[3]; [10],1
same,veg_sterile,[3]; [11],1
same,veg_sterile,[3]; [12],1
same,veg_sterile,[3]; [13],0
same,veg_sterile,[3]; [14],0
same,veg_sterile,[3]; [15],0
same,veg_sterile,[3]; [16],0
same,veg_sterile,[3]; [17],0
same,veg_sterile,[3]; [18],1
same,veg_sterile,[3]; [19],1
same,veg_sterile,[3]; [20],1
same,veg_sterile,[3]; [21],1
